Here are results for 15 molecules from PubChem BioAssay (NCI).

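Results reflect a 48-hour exposure of cells in 96-well plates to compound at five concentrations. The concentration for full growth arrest is given as TGI.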

Test systems include CCRF-CEM leukemia; HCC-2998 colon; HCT-15 colon; HOP-92 NSCLC; HS 578T breast; MOLT-4 leukemia; RXF 393 renal; SK-OV-3 ovarian; SW-620 colon; IGROV1 ovarian.
What all share (test): NCI tumour cell line growth inhibition, 48 h

Turning to `CSc1ncc2c(n1)-c1ccccc1OC2NC(C)(C)C` (centres undefined), the TGI with CCRF-CEM leukemia is more than 100 µM; in the experiment with HCC-2998 colon, 87 µM; with HCT-15 colon, more than 100 µM; with HOP-92 NSCLC, more than 100 µM; in the experiment with HS 578T breast, more than 100 µM; in the experiment on MOLT-4 leukemia, more than 100 µM. In addition, the TGI with RXF 393 renal, in the experiment with SK-OV-3 ovarian and in the experiment with SW-620 colon was more than 100 µM each time.
On to `COc1ccc2c(c1OC)C(=O)O[C@@H]2[C@H]1c2cc3c(cc2CCN1C)OCO3`, for which the TGI with HCC-2998 colon, in the experiment on HCT-15 colon, with HOP-92 NSCLC, in the experiment with HS 578T breast, in the experiment with IGROV1 ovarian and in the experiment with MOLT-4 leukemia was more than 100 µM in each case. For the same molecule, the TGI in the experiment on SK-OV-3 ovarian and in the experiment on SW-620 colon was more than 100 µM throughout.
As for `CC(=O)O[C@H]1CN(S(=O)(=O)c2ccc(C)cc2)C[C@@H]1C1CCCCC1`, the TGI was more than 100 µM in the experiment with CCRF-CEM leukemia; more than 100 µM in the experiment on HCC-2998 colon; more than 100 µM with HCT-15 colon; 82.4 µM in the experiment with HOP-92 NSCLC; 37.8 µM in the experiment with HS 578T breast; 40.9 µM with IGROV1 ovarian. In addition, the TGI with MOLT-4 leukemia is 62.7 µM; with SK-OV-3 ovarian, more than 100 µM; with SW-620 colon, more than 100 µM.
`CC1=C[C@@H](C)C[C@]2(C)CC[C@H](O2)[C@]23CC[C@](C)(C[C@H](O2)[C@@H]2O[C@@](C)(CC2=O)[C@@H](O)[C@H]2CC[C@@]4(CCC[C@@H](O4)[C@H](C)C(=O)O[C@H]4C[C@H]([C@]5(O)OCC[C@H](C)[C@@H]5O)O[C@H]4C=C1)O2)O3`: the TGI with HCC-2998 colon was more than 10 µM; in the experiment with HCT-15 colon, more than 10 µM; in the experiment with HOP-92 NSCLC, 0.00517 µM; in the experiment on HS 578T breast, 0.00214 µM; with IGROV1 ovarian it was 0.0154 µM; with MOLT-4 leukemia it was more than 10 µM. Also, the figures for the TGI with RXF 393 renal and in the experiment with SW-620 colon were 0.00747 µM and more than 10 µM, respectively.
In the case of `CCn1c2ccc(O)c(C(=O)OC)c2c2cc3ccccc3c(O)c21`, the TGI stood at 70 µM in the experiment on CCRF-CEM leukemia; 38.3 µM in the experiment with HCC-2998 colon; 56 µM in the experiment with HCT-15 colon; 21.3 µM in the experiment with HOP-92 NSCLC; 45.2 µM with HS 578T breast; 31.2 µM in the experiment with IGROV1 ovarian. Moreover, the values for the TGI with MOLT-4 leukemia, in the experiment with RXF 393 renal and in the experiment with SK-OV-3 ovarian were 73.5 µM, more than 100 µM and 43.8 µM, respectively.
With `CC1C2CC(C/C2=N/O)C1(C)C` (centres undefined), the TGI in the experiment with CCRF-CEM leukemia, in the experiment with HCC-2998 colon, with HOP-92 NSCLC, with HS 578T breast, with IGROV1 ovarian and in the experiment with MOLT-4 leukemia was more than 100 µM throughout. In addition, the TGI in the experiment with RXF 393 renal, in the experiment on SK-OV-3 ovarian and with SW-620 colon was more than 100 µM each time.
`C=CC(C)(C)c1cc([C@@H]2COc3cc(O)ccc3C2=O)c(O)c(O)c1OC`: the TGI in the experiment with CCRF-CEM leukemia was more than 100 µM; in the experiment with HCC-2998 colon, more than 100 µM; with HCT-15 colon, 32 µM; in the experiment with HOP-92 NSCLC, 49.4 µM; in the experiment with HS 578T breast, more than 100 µM; in the experiment with MOLT-4 leukemia, more than 100 µM. The TGI in the experiment with RXF 393 renal is 21.1 µM; in the experiment on SK-OV-3 ovarian, 61 µM; in the experiment on SW-620 colon, more than 100 µM.
For `COc1cc(OC)cc(-n2c(N)c(-c3nc4ccccc4n3C)c3ccc([N+](=O)[O-])cc3c2=O)c1`, the TGI is more than 100 µM in the experiment on HCC-2998 colon; more than 100 µM in the experiment on HCT-15 colon; 68 µM in the experiment with HOP-92 NSCLC; 83.3 µM in the experiment on HS 578T breast; more than 100 µM in the experiment with SW-620 colon.
As to `COc1cc2c(cc1C)NC(=O)/C2=C\c1ccncc1`, the TGI in the experiment with CCRF-CEM leukemia was more than 100 µM; in the experiment on HCC-2998 colon, 30 µM; in the experiment with HCT-15 colon, 16 µM; in the experiment with HOP-92 NSCLC, more than 100 µM; in the experiment on HS 578T breast, 8.1 µM; in the experiment on IGROV1 ovarian it was 6.94 µM. For the same molecule, the figures for the TGI in the experiment on RXF 393 renal, in the experiment on SK-OV-3 ovarian and with SW-620 colon were 13.4 µM, 13.7 µM and more than 100 µM, respectively.
As to `O=S1(=O)C(c2ccccc2)=C(O)c2ccccc21`, the TGI in the experiment on CCRF-CEM leukemia, with HCC-2998 colon, in the experiment on HCT-15 colon, with HOP-92 NSCLC, in the experiment with HS 578T breast and in the experiment with IGROV1 ovarian was more than 100 µM in each case. Further, the TGI in the experiment with MOLT-4 leukemia, in the experiment on RXF 393 renal and in the experiment on SW-620 colon was more than 100 µM in each case.
With `C/C=C/[C@H]1O[C@@](O)([C@@H](C)[C@H](O)[C@H](C)[C@H]2OC(=O)/C(OC)=C/C(C)=C/[C@@H](C)[C@@H](O)[C@@H](CC)[C@@H](O)[C@H](C)C/C(C)=C/C=C/[C@@H]2OC)C[C@H](OC2CC(O)C(OC(N)=O)C(C)O2)[C@@H]1C` (some centres undefined), the TGI in the experiment with CCRF-CEM leukemia came to 0.723 µM; in the experiment with HCC-2998 colon, 18.6 µM; in the experiment on HCT-15 colon, 12.6 µM; in the experiment on HOP-92 NSCLC it was 2.4 µM; in the experiment with HS 578T breast it was 48 µM; in the experiment with IGROV1 ovarian it was 20.9 µM. The values for the TGI in the experiment on RXF 393 renal, with SK-OV-3 ovarian and with SW-620 colon were 37 µM, 25.4 µM and 15.3 µM, respectively.
In the case of `O=c1[nH]c2cc3cccnc3c(Cl)c2nc1CBr`, the TGI with CCRF-CEM leukemia is 31.1 µM; in the experiment with HCT-15 colon, 9.94 µM; in the experiment with HOP-92 NSCLC, 35.2 µM; in the experiment with HS 578T breast, 28.3 µM; in the experiment on IGROV1 ovarian, 12.3 µM; in the experiment on MOLT-4 leukemia, more than 100 µM. In addition, the values for the TGI in the experiment with RXF 393 renal, in the experiment with SK-OV-3 ovarian and with SW-620 colon were 34.6 µM, 65.5 µM and 32.5 µM, respectively.
Turning to `Oc1nc(N/N=C/c2ccccc2)[nH]c1/C=C1\C=Nc2ccccc21`, the TGI was 74.3 µM in the experiment with CCRF-CEM leukemia; more than 100 µM in the experiment with HCT-15 colon; more than 100 µM with HOP-92 NSCLC; more than 100 µM in the experiment on HS 578T breast; more than 100 µM in the experiment with IGROV1 ovarian; more than 100 µM with MOLT-4 leukemia. The TGI in the experiment on RXF 393 renal, with SK-OV-3 ovarian and in the experiment on SW-620 colon was more than 100 µM in each case.
On to `Cc1cc(S(=O)(=O)Nc2nc3ccccc3n2-c2ccccc2)c(S)cc1Cl`, for which the TGI in the experiment on CCRF-CEM leukemia, in the experiment on HCC-2998 colon, in the experiment on HCT-15 colon, with HOP-92 NSCLC, with HS 578T breast and in the experiment with IGROV1 ovarian was more than 100 µM each time. For the same molecule, the TGI with MOLT-4 leukemia, in the experiment on RXF 393 renal and with SW-620 colon was more than 100 µM throughout.
With `CCOC(=O)c1c(NCc2ccccc2)n(-c2ccccc2)c(=S)n(-c2ccccc2)c1=O`, the TGI is more than 100 µM in the experiment with CCRF-CEM leukemia; more than 100 µM in the experiment with HCC-2998 colon; more than 100 µM with HCT-15 colon; more than 100 µM with HOP-92 NSCLC; 94.4 µM in the experiment with HS 578T breast; more than 100 µM in the experiment with IGROV1 ovarian. In addition, the TGI with MOLT-4 leukemia, with RXF 393 renal and with SW-620 colon was more than 100 µM each time.
